Source: ChEMBL document CHEMBL4706744, “Discovery of Selective Transforming Growth Factor β Type II Receptor Inhibitors as Antifibrosis Agents” (ACS Med Chem Lett, 2021)

Assay: AUC in mouse at 1 mg/kg, po by LC/MS analysis
Type: ADME, organism-based
Design: dose 1 mg/kg
Details: in vivo

| Structure (SMILES) | AUC [µM·h] |
| --- | --- |
| Cn1cc(-c2nc3c(-c4ccnc(OC5CC5)c4)cnn3cc2OCCC(C)(C)O)cn1 | 2.3 |

Assay: Apparent permeability across apical to basolateral side in human Caco2 cells incubated for 2 hrs by LC/MS/MS analysis
Type: ADME, cell-based
Details: Caco-2, read-out: permeability

| Structure (SMILES) | Papp A→B at 2 h [×10⁻⁶ cm/s] |
| --- | --- |
| Cn1cc(-c2nc3c(-c4ccnc(OC5CC5)c4)cnn3cc2OCCC(C)(C)O)cn1 | 1.4 |

Assay: Half life in mouse at 1 mg/kg, po by LC/MS analysis
Type: ADME, organism-based
Details: in vivo

| Structure (SMILES) | half-life [h] |
| --- | --- |
| Cn1cc(-c2nc3c(-c4ccnc(OC5CC5)c4)cnn3cc2OCCC(C)(C)O)cn1 | 4.6 |

Assay: Total clearance in Sprague-Dawley rat at 0.3 mg/kg, iv measured up to 24 hrs by LC-MS/MS analysis
Type: ADME, organism-based
Details: in vivo

| Structure (SMILES) | clearance [mL/min/kg] |
| --- | --- |
| Cn1cc(-c2nc3c(-c4ccnc(OC5CC5)c4)cnn3cc2OCCC(C)(C)O)cn1 | 8.17 |

Assay: Metabolic stability in human liver microsomes assessed as compound remaining at 1 uM incubated for 60 mins
Type: ADME, Microsome
Details: read-out: Stabilty

| Structure (SMILES) | remaining at 1 h, 1 µM [%] |
| --- | --- |
| COc1cc(-c2cnn3cc(OC)c([C@H]4COC(C)(C)C4)nc23)ccn1 | 21 |
| COc1cnc2c(-c3ccnc(OC)c3)cnn2c1 | 2 |
| COc1cc(-c2cnn3cc(OC)c(C(C)(C)O)nc23)ccn1 | 66 |
| Cn1cc(-c2nc3c(-c4ccnc(OC5CC5)c4)cnn3cc2OCCCC(C)(C)O)cn1 | 54 |
| CNc1nc2c(-c3ccnc(OC)c3)cnn2cc1OC | 63 |
| COc1cc(-c2cnn3cc(OC)c(-c4cc(C)no4)nc23)ccn1 | 31 |
| COc1cc(-c2cnn3cc(OC)c(-c4cnn(C)c4)nc23)ccn1 | 43 |
| COc1cc(-c2cnn3cc(OC)c(C4CCCC4)nc23)ccn1 | 32 |
| COc1cc(-c2cnn3cc(OC)c(C)nc23)ccn1 | 44 |
| Cn1cc(-c2nc3c(-c4ccnc(OC5CC5)c4)cnn3cc2OCCC(C)(C)O)cn1 | 74 |
| COc1cn2ncc(-c3ccnc(OC(C)(C)C)c3)c2nc1-c1cnn(C)c1 | 35 |
| COc1cc(-c2cnn3cc(OC)c(N(C)C)nc23)ccn1 | 16 |
| Cn1cc(-c2nc3c(-c4ccnc(OC5CC5)c4)cnn3cc2OCC(C)(C)O)cn1 | 53 |
| COc1cc(-c2cnn3cc(OC)c(C(C)C)nc23)ccn1 | 40 |
| COc1cn2ncc(-c3ccnc(OC(C)C)c3)c2nc1-c1cnn(C)c1 | 32 |
| COc1cc(-c2cnn3cc(OC)c(C4CCOC4)nc23)ccn1 (centres undefined) | 29 |
| COc1cn2ncc(-c3ccnc(OC4CC4)c3)c2nc1-c1cnn(C)c1 | 47 |
| COc1cc(-c2cnn3cc(OC)c([C@@H]4COC(C)(C)C4)nc23)ccn1 | 13 |

Assay: Metabolic stability in rat liver microsomes assessed as compound remaining at 1 uM incubated for 60 mins
Type: ADME, Microsome
Details: read-out: Stabilty

| Structure (SMILES) | remaining at 1 h, 1 µM [%] |
| --- | --- |
| COc1cc(-c2cnn3cc(OC)c([C@H]4COC(C)(C)C4)nc23)ccn1 | 30 |
| COc1cnc2c(-c3ccnc(OC)c3)cnn2c1 | 10 |
| COc1cc(-c2cnn3cc(OC)c(C(C)(C)O)nc23)ccn1 | 92 |
| Cn1cc(-c2nc3c(-c4ccnc(OC5CC5)c4)cnn3cc2OCCCC(C)(C)O)cn1 | 64 |
| CNc1nc2c(-c3ccnc(OC)c3)cnn2cc1OC | 74 |
| COc1cc(-c2cnn3cc(OC)c(-c4cc(C)no4)nc23)ccn1 | 62 |
| COc1cc(-c2cnn3cc(OC)c(-c4cnn(C)c4)nc23)ccn1 | 56 |
| COc1cc(-c2cnn3cc(OC)c(C4CCCC4)nc23)ccn1 | 7 |
| COc1cc(-c2cnn3cc(OC)c(C)nc23)ccn1 | 13 |
| Cn1cc(-c2nc3c(-c4ccnc(OC5CC5)c4)cnn3cc2OCCC(C)(C)O)cn1 | 84 |
| COc1cn2ncc(-c3ccnc(OC(C)(C)C)c3)c2nc1-c1cnn(C)c1 | 61 |
| COc1cc(-c2cnn3cc(OC)c(N(C)C)nc23)ccn1 | 3 |
| Cn1cc(-c2nc3c(-c4ccnc(OC5CC5)c4)cnn3cc2OCC(C)(C)O)cn1 | 81 |
| COc1cc(-c2cnn3cc(OC)c(C(C)C)nc23)ccn1 | 14 |
| COc1cn2ncc(-c3ccnc(OC(C)C)c3)c2nc1-c1cnn(C)c1 | 50 |
| COc1cc(-c2cnn3cc(OC)c(C4CCOC4)nc23)ccn1 (centres undefined) | 34 |
| COc1cn2ncc(-c3ccnc(OC4CC4)c3)c2nc1-c1cnn(C)c1 | 32 |
| COc1cc(-c2cnn3cc(OC)c([C@@H]4COC(C)(C)C4)nc23)ccn1 | 30 |

Assay: Volume of distribution at steady state in Sprague-Dawley rat at 0.3 mg/kg, iv measured up to 24 hrs by LC-MS/MS analysis
Type: ADME, organism-based
Details: in vivo, read-out: Vdss

| Structure (SMILES) | Vd [L/kg] |
| --- | --- |
| Cn1cc(-c2nc3c(-c4ccnc(OC5CC5)c4)cnn3cc2OCCC(C)(C)O)cn1 | 2.7 |

Assay: Oral bioavailability in mouse at 1 mg/kg by LC/MS analysis
Type: ADME, organism-based
Details: in vivo

| Structure (SMILES) | bioavailability [%] |
| --- | --- |
| Cn1cc(-c2nc3c(-c4ccnc(OC5CC5)c4)cnn3cc2OCCC(C)(C)O)cn1 | 48 |

Assay: Mean residence time in Sprague-Dawley rat at 0.3 mg/kg, iv measured up to 24 hrs by LC-MS/MS analysis
Type: ADME, organism-based
Details: in vivo

| Structure (SMILES) | MRT [h] |
| --- | --- |
| Cn1cc(-c2nc3c(-c4ccnc(OC5CC5)c4)cnn3cc2OCCC(C)(C)O)cn1 | 5.5 |

Assay: Solubility of the compound measured after 4 hrs by LC analysis
Type: physicochemical
Details: not given

| Structure (SMILES) | solubility |
| --- | --- |
| Cn1cc(-c2nc3c(-c4ccnc(OC5CC5)c4)cnn3cc2OCCC(C)(C)O)cn1 | Soluble |
